Laboratory results: the kinase profiling compilation of Christmann-Franck et al. (2016)

Experiments:
Test in all cases: KINOMEscan competition binding
Details in all cases: compound 2.0 µM
CSNK2A1 (human) = CSNK2A1 (human) (UniProt P68400)
EPHA5 (human) = EPHA5 (human) (UniProt P54756)
AURKC (human) = AURKC (human) (UniProt Q9UQB9)
CDK14 (human) = CDK14 (human) (UniProt O94921)
[1] = tested on: PIK3CA (human), P42336 [E545A]
STK24 (human) = STK24 (human) (UniProt Q9Y6E0)
DYRK1B (human) = DYRK1B (human) (UniProt Q9Y463)
SYK (human) = SYK (human) (UniProt P43405)
PIM3 (human) = PIM3 (human) (UniProt Q86V86)
CDK8 (human) = CDK8 (human) (UniProt P49336)
CDK8 (human), sequence (P49336 whole entry, looked up): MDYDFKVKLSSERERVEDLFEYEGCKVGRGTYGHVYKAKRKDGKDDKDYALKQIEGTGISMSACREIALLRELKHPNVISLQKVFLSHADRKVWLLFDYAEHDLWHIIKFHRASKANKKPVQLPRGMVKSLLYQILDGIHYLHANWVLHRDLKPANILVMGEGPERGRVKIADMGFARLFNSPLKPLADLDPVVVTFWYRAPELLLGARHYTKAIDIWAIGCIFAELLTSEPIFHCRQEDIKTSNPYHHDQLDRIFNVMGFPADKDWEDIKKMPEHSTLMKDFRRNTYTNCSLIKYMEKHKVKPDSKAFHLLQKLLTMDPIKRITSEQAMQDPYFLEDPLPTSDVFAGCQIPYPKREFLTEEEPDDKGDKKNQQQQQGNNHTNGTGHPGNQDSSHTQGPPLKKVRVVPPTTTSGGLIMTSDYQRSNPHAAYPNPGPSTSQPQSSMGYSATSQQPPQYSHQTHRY

EPHB6 (human) = EPHB6 (human) (UniProt O15197)
EPHB6 (human), sequence (O15197 whole entry, looked up): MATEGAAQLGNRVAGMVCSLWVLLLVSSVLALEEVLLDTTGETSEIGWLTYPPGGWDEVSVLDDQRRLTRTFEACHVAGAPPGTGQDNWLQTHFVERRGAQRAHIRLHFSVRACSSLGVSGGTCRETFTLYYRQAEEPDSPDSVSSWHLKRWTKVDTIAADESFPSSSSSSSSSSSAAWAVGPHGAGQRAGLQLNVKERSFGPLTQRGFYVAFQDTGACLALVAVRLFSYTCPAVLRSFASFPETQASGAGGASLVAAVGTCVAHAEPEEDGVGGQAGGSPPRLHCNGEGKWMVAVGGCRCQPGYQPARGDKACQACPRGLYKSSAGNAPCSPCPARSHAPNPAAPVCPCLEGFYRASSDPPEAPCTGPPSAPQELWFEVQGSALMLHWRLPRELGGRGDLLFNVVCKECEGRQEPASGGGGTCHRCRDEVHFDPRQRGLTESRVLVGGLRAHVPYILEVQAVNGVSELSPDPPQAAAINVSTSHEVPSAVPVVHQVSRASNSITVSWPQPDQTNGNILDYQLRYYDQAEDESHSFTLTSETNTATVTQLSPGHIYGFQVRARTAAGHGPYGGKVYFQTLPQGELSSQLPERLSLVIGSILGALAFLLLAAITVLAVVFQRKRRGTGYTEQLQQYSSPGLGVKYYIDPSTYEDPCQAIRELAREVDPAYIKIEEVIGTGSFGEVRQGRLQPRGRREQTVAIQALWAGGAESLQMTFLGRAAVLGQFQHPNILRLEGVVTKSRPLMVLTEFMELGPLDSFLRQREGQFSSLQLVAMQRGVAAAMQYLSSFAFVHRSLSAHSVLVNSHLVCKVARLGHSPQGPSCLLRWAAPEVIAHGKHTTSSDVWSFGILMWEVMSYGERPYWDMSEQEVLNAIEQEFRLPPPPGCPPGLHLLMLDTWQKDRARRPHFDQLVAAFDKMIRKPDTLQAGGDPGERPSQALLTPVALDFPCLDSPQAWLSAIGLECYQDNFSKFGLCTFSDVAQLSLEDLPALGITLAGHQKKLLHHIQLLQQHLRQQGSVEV

MAPK14 (human) = MAPK14 (human) (UniProt Q16539)
EPHA6 (human) = EPHA6 (human) (UniProt Q9UF33)
ABL2 (human) = ABL2 (human) (UniProt P42684)
MYLK2 (human) = MYLK2 (human) (UniProt Q9H1R3)
MYLK2 (human), sequence (Q9H1R3 whole entry, looked up): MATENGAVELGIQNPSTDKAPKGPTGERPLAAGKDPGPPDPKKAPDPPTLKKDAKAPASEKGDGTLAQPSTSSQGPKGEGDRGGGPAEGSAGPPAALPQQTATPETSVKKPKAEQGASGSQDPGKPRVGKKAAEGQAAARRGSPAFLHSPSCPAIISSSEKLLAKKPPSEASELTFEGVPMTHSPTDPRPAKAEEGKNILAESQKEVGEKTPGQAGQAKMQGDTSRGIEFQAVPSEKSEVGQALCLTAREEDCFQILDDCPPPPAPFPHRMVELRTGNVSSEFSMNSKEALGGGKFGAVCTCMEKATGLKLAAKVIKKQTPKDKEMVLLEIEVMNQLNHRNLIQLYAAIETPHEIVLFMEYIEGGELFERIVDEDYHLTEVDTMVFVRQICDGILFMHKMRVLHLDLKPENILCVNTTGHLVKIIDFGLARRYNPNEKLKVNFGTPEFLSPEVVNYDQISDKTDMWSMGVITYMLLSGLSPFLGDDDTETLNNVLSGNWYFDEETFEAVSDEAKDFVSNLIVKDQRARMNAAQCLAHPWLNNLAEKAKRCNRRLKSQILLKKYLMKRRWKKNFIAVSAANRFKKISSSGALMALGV

AAK1 (human) = AAK1 (human) (UniProt Q2M2I8)
CAMKK2 (human) = CAMKK2 (human) (UniProt Q96RR4)
MAP3K9 (human) = MAP3K9 (human) (UniProt P80192)
[2] = tested on: EGFR (human), P00533 [L861Q]
[3] = tested on: RET (human), P07949 [V804L]
[4] = tested on: KIT (human), P10721 [L576P]
KIT (human), P10721 [L576P], sequence (P10721 whole entry L576P, looked up): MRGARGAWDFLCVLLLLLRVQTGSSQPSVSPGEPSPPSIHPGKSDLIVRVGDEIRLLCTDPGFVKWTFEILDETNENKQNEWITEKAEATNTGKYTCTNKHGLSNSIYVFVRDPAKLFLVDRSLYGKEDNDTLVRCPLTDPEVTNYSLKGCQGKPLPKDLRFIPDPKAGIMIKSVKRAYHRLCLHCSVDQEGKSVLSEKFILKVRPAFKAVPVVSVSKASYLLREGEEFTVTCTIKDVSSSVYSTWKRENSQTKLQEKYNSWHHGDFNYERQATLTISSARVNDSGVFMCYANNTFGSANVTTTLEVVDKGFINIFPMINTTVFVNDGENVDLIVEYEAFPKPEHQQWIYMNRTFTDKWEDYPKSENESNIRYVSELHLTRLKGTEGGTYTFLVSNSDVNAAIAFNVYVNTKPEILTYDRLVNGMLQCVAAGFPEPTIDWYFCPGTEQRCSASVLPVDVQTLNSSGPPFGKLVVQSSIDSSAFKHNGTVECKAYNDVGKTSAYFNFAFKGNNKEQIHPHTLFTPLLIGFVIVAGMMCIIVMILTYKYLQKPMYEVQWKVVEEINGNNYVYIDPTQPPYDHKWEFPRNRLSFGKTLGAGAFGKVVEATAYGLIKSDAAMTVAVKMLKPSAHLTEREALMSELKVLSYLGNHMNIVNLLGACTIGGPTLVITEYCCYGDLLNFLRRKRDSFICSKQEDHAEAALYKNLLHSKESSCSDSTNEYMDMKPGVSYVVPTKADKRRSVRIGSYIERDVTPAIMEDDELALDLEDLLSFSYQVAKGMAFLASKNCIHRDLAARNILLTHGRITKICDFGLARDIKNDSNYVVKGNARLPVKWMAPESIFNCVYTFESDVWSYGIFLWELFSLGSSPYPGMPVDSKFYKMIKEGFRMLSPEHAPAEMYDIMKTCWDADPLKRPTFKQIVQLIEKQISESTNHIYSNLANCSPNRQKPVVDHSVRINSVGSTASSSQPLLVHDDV

MST4 (human) = MST4 (human) (UniProt Q9P289)
STK17A (human) = STK17A (human) (UniProt Q9UEE5)
[5] = tested on: FGFR3 (human), P22607 [G697C]
[6] = tested on: KIT (human), P10721 [V559D/T670I]
KIT (human), P10721 [V559D/T670I], sequence (P10721 whole entry V559D/T670I, looked up): as the sequence (P10721 whole entry L576P, looked up) above, with V559D, P576L, T670I counted along it

[7] = tested on: PIK3CA (human), P42336 [E542K]
CAMK2B (human) = CAMK2B (human) (UniProt Q13554)
SGK3 (human) = SGK3 (human) (UniProt Q96BR1)
PKN3 (M.tuberculosis) = PKN3 (M.tuberculosis) (UniProt Q6P5Z2)
PKN3 (M.tuberculosis), sequence (Q6P5Z2 whole entry, looked up): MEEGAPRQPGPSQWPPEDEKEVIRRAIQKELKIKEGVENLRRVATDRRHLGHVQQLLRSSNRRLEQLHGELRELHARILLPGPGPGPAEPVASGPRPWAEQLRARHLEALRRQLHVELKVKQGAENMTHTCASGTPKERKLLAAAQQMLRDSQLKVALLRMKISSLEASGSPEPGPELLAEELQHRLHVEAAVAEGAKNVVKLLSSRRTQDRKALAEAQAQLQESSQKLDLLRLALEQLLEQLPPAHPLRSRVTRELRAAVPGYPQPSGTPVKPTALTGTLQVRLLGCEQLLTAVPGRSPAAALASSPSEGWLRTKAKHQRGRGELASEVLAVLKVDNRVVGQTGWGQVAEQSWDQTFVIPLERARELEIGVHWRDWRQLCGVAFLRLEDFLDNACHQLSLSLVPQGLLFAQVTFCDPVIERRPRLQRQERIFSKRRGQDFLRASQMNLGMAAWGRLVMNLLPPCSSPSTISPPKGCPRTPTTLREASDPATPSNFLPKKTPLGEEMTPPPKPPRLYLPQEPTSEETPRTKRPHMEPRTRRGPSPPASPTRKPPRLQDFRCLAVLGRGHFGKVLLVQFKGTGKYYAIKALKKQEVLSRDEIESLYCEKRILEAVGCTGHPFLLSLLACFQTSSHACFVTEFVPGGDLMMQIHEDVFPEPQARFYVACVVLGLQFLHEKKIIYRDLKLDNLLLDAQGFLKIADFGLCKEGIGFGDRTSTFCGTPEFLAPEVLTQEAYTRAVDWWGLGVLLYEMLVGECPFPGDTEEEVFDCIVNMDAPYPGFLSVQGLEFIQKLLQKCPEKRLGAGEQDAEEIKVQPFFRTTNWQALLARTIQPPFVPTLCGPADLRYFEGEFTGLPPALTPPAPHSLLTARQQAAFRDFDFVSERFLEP

AURKA (human) = AURKA (human) (UniProt O14965)
RPS6KA1 KD2 (human) = RPS6KA1 KD2 (human) (UniProt Q15418)
MYLK3 (human) = MYLK3 (human) (UniProt Q32MK0)
MYLK3 (human), sequence (Q32MK0 whole entry, looked up): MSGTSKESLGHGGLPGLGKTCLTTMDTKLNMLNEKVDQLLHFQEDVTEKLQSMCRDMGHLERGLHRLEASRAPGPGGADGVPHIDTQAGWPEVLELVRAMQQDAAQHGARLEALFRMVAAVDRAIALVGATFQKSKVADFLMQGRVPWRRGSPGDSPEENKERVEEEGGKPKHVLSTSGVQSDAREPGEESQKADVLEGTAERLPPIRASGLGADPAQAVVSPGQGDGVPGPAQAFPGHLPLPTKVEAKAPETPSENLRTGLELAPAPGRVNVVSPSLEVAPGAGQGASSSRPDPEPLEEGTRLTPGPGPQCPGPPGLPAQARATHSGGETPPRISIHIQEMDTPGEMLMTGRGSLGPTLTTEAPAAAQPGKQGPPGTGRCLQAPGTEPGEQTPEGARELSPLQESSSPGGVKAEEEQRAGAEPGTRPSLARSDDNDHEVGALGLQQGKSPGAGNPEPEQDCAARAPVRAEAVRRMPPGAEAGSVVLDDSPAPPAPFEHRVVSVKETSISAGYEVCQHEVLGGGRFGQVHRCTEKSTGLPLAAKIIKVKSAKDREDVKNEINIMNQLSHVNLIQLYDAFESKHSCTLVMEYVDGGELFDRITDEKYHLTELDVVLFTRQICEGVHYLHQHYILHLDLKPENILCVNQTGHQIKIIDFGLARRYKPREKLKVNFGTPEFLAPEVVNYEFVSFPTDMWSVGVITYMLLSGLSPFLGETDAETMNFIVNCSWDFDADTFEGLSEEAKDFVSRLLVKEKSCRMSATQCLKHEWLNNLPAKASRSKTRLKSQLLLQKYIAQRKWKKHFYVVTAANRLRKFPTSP

MAP3K11 (human) = MAP3K11 (human) (UniProt Q16584)
[8] = tested on: PIK3CA (human), P42336 [Q546K]
PIP5K1C (human) = PIP5K1C (human) (UniProt O60331)
PRKG2 (human) = PRKG2 (human) (UniProt Q13237)
EPHA4 (human) = EPHA4 (human) (UniProt P54764)
ULK1 (human) = ULK1 (human) (UniProt O75385)
EPHB2 (human) = EPHB2 (human) (UniProt P29323)
MAST1 (human) = MAST1 (human) (UniProt Q9Y2H9)
TESK1 (human) = TESK1 (human) (UniProt Q15569)
BTK (human) = BTK (human) (UniProt Q06187)
[9] = biological target: JAK3 JH1 catalytic (human) (UniProt P52333)

Measured: kinase still bound, per cent of control

N#Cc1ccc2ncnc(NCCc3ccc4ccccc4c3)c2c1
99%: ABL2 (human) | MYLK2 (human) | EPHB2 (human)
96%: DYRK1B (human)
86%: AAK1 (human) | [4] | [6] | BTK (human)
92%: CSNK2A1 (human) | [1] | STK24 (human) | [3]
77%: MST4 (human)
60%: [2]
89%: MAP3K11 (human)
94%: AURKA (human)
79%: MYLK3 (human)
8.7%: CDK8 (human)
84%: AURKC (human) | [7] | MAST1 (human)
88%: CAMK2B (human) | RPS6KA1 KD2 (human)
85%: MAP3K9 (human) | [8]
100%: all other assays above
